Laboratory results: PubChem BioAssay AID256 (DTP/NCI, 2004)
Inconclusive results and toxic doses are left out. Rule for the calls: active = survival T/C of 150% or more; inactive = T/C below 125% in these data.

Tested on: CD2F1 mice, L1210 leukemia ip, survival T/C
Assay: NCI In Vivo Anticancer Drug Screen. Data for tumor model L1210 Leukemia (intraperitoneal) in CD2F1 (CDF1) mice
Conditions: higher = longer survival
In short: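 Ratio T/C, where T is the treated-group value and C the vehicle-dosed control value, from mice implanted with a transplantable tumor.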

[1] = endpoint: mean survival time, dose: 50.0 mg/kg/injection, schedule: Q01DX009 (ip), vehicle: saline
[2] = endpoint: mean survival time, dose: 100.0 mg/kg/injection, schedule: Q01DX009 (ip), vehicle: saline
[3] = endpoint: mean survival time, dose: 200.0 mg/kg/injection, schedule: Q01DX009 (ip), vehicle: saline
[4] = endpoint: mean survival time, dose: 100.0 mg/kg/injection, schedule: Q04DX003 (ip), vehicle: saline
[5] = endpoint: mean survival time, dose: 200.0 mg/kg/injection, schedule: Q04DX003 (ip), vehicle: saline
[6] = endpoint: mean survival time, dose: 75.0 mg/kg/injection, schedule: Q01DX001 (ip), vehicle: other
[7] = endpoint: mean survival time, dose: 100.0 mg/kg/injection, schedule: Q01DX009 (ip), vehicle: saline with Tween-80
[8] = endpoint: mean survival time, dose: 100.0 mg/kg/injection, schedule: Q04DX003 (ip), vehicle: saline with Tween-80
[9] = endpoint: mean survival time, dose: 200.0 mg/kg/injection, schedule: Q01DX009 (ip), vehicle: saline with Tween-80
[10] = endpoint: mean survival time, dose: 200.0 mg/kg/injection, schedule: Q04DX003 (ip), vehicle: saline with Tween-80
[11] = endpoint: mean survival time, dose: 400.0 mg/kg/injection, schedule: Q01DX009 (ip), vehicle: saline with Tween-80
[12] = endpoint: mean survival time, dose: 400.0 mg/kg/injection, schedule: Q04DX003 (ip), vehicle: saline with Tween-80
[13] = endpoint: mean survival time, dose: 200.0 mg/kg/injection, schedule: Q01DX001 (ip), vehicle: saline with Tween-80
[14] = endpoint: mean survival time, dose: 400.0 mg/kg/injection, schedule: Q01DX001 (ip), vehicle: saline with Tween-80
[15] = endpoint: mean survival time, dose: 50.0 mg/kg/injection, schedule: Q01DX009 (ip), vehicle: Klucel (hydroxypropylcellulose) (HPC)
[16] = endpoint: mean survival time, dose: 100.0 mg/kg/injection, schedule: Q01DX009 (ip), vehicle: Klucel (hydroxypropylcellulose) (HPC)
[17] = endpoint: mean survival time, dose: 25.0 mg/kg/injection, schedule: Q04DX002 (ip), vehicle: saline with Tween-80
[18] = endpoint: mean survival time, dose: 50.0 mg/kg/injection, schedule: Q04DX002 (ip), vehicle: saline with Tween-80
[19] = endpoint: mean survival time, dose: 100.0 mg/kg/injection, schedule: Q04DX002 (ip), vehicle: saline with Tween-80
[20] = endpoint: mean survival time, dose: 200.0 mg/kg/injection, schedule: Q04DX002 (ip), vehicle: saline with Tween-80
[21] = endpoint: mean survival time, dose: 100.0 mg/kg/injection, schedule: Q01DX001 (ip), vehicle: saline
[22] = endpoint: mean survival time, dose: 200.0 mg/kg/injection, schedule: Q01DX001 (ip), vehicle: saline

Measured: T/C

CNC(=O)Nc1cc(C)ccc1OC
inactive: [1] 106 % of control | [2] 101 % of control | [3] 107 % of control

Cc1ncc2cnccn12
inactive: endpoint: mean survival time, dose: 50.0 mg/kg/injection, schedule: Q01DX009 (ip), vehicle: saline sonified 101 % of control | endpoint: mean survival time, dose: 100.0 mg/kg/injection, schedule: Q01DX009 (ip), vehicle: saline sonified 104 % of control | [4] 97 % of control | [5] 101 % of control

C[N+](C)(C)CC1CO1 (stereo unspecified)
inactive: [4] 106 % of control | [5] 94 % of control

COc1ccc2c(c1[N+](=O)[O-])CC[C@@H]1[C@@H]2CC[C@]2(C)C(=O)CC[C@@H]12
inactive: endpoint: median survival time, dose: 50.0 mg/kg/injection, schedule: Q01DX009 (ip), vehicle: saline with Tween-80 103 % of control | endpoint: median survival time, dose: 100.0 mg/kg/injection, schedule: Q01DX009 (ip), vehicle: saline with Tween-80 103 % of control | endpoint: median survival time, dose: 200.0 mg/kg/injection, schedule: Q01DX009 (ip), vehicle: saline with Tween-80 102 % of control | endpoint: median survival time, dose: 400.0 mg/kg/injection, schedule: Q01DX009 (ip), vehicle: saline with Tween-80 103 % of control | endpoint: median survival time, dose: 800.0 mg/kg/injection, schedule: Q01DX009 (ip), vehicle: saline with Tween-80 106 % of control

CN(C)CCCC1c2ccccc2Oc2ccc(C(F)(F)F)cc21 (stereo unspecified)
inactive: endpoint: mean survival time, dose: 1.56 mg/kg/injection, schedule: Q01DX009 (ip), vehicle: saline 96 % of control | endpoint: mean survival time, dose: 3.12 mg/kg/injection, schedule: Q01DX009 (ip), vehicle: saline 100 % of control | endpoint: mean survival time, dose: 6.25 mg/kg/injection, schedule: Q01DX009 (ip), vehicle: saline 94 % of control | endpoint: mean survival time, dose: 12.5 mg/kg/injection, schedule: Q01DX009 (ip), vehicle: saline 100 % of control | endpoint: mean survival time, dose: 25.0 mg/kg/injection, schedule: Q01DX009 (ip), vehicle: saline 103 % of control

O=C(O)CCN1CCS(=O)(=O)C1=S
inactive: [6] 101 % of control | endpoint: mean survival time, dose: 150.0 mg/kg/injection, schedule: Q01DX001 (ip), vehicle: other 95 % of control | endpoint: mean survival time, dose: 300.0 mg/kg/injection, schedule: Q01DX001 (ip), vehicle: other 104 % of control

O=C1c2ccccc2C2c3ccccc3CCN12 (stereo unspecified)
inactive: [7] 103 % of control | [8] 104 % of control | [9] 97 % of control | [10] 102 % of control | [11] 97 % of control | [12] 102 % of control

CN(C)CCCNCC#CCNCCCN(C)C
inactive: [1] 100 % of control | [2] 98 % of control | [4] 101 % of control | [3] 96 % of control | [5] 95 % of control

CCN(CC)C(=O)c1ccc[n+](Cc2ccc(Cl)c(Cl)c2)c1
inactive: [4] 103 % of control

Cc1nc2scc(C)c2c(=S)[nH]1
inactive: endpoint: mean survival time, dose: 100.0 mg/kg/injection, schedule: Q01DX001 (ip), vehicle: saline with Tween-80 96 % of control | [13] 97 % of control | [14] 88 % of control

O=C(O)c1cc(F)c(F)c(F)c1F
inactive: endpoint: mean survival time, dose: 12.5 mg/kg/injection, schedule: Q01DX009 (ip), vehicle: saline with Tween-80 91 % of control | endpoint: mean survival time, dose: 25.0 mg/kg/injection, schedule: Q01DX009 (ip), vehicle: saline with Tween-80 97 % of control | endpoint: mean survival time, dose: 25.0 mg/kg/injection, schedule: Q04DX003 (ip), vehicle: saline with Tween-80 96 % of control | endpoint: mean survival time, dose: 50.0 mg/kg/injection, schedule: Q01DX009 (ip), vehicle: saline with Tween-80 103 % of control | endpoint: mean survival time, dose: 50.0 mg/kg/injection, schedule: Q04DX003 (ip), vehicle: saline with Tween-80 94 % of control

Cc1cc2c(=O)c(C)c[nH]c2cc1Cl
inactive: [15] 89 % of control | [16] 86 % of control

COC1CCC(/C=C(\C#N)C2CCC([N+](=O)[O-])CC2)CC1Br (stereo unspecified)
inactive: [17] 105 % of control | [18] 96 % of control

CN1CC2(Cc3ccccc3)c3ccccc3NC2(NC(=O)CCl)C1=O (stereo unspecified)
inactive: [17] 87 % of control | [18] 95 % of control | [19] 91 % of control | [13] 92 % of control | [20] 89 % of control | [14] 96 % of control

CC1CN(CCC#N)C(=O)S1(=O)=O (stereo unspecified)
inactive: [6] 108 % of control

O=C(O)C1=NN(c2ccc(S(=O)(=O)O)cc2)C(=O)C1
inactive: [7] 96 % of control | [9] 92 % of control | [11] 92 % of control

COC(=O)c1cc(C(=O)OC)c(C(=O)OC)cc1C(=O)OC
inactive: [8] 97 % of control | [10] 92 % of control | [12] 89 % of control

CCOC(=O)CCC(NC(=O)N(CCCl)CCCl)C(=O)OCC (stereo unspecified)
inactive: endpoint: mean survival time, dose: 25.0 mg/kg/injection, schedule: Q01DX001 (ip), vehicle: carboxymethylcellulose (CMC) 97 % of control | endpoint: mean survival time, dose: 50.0 mg/kg/injection, schedule: Q01DX001 (ip), vehicle: carboxymethylcellulose (CMC) 106 % of control | [21] 103 % of control | [22] 114 % of control | endpoint: mean survival time, dose: 900.0 mg/kg/injection, schedule: Q01DX001 (ip), vehicle: carboxymethylcellulose (CMC) 102 % of control

COCC(OC)C(OC)C(OC)C(C=O)OC (stereo unspecified)
inactive: endpoint: mean survival time, dose: 50.0 mg/kg/injection, schedule: Q01DX001 (ip), vehicle: Klucel (hydroxypropylcellulose) (HPC) 99 % of control | endpoint: mean survival time, dose: 100.0 mg/kg/injection, schedule: Q01DX001 (ip), vehicle: Klucel (hydroxypropylcellulose) (HPC) 99 % of control | endpoint: mean survival time, dose: 200.0 mg/kg/injection, schedule: Q01DX001 (ip), vehicle: Klucel (hydroxypropylcellulose) (HPC) 105 % of control

Nc1ncc(CCS)c(=O)[nH]1
inactive: [21] 97 % of control | [22] 98 % of control

Cc1c(Cl)c(N)c(Cl)c(Cl)c1Cl
inactive: [8] 101 % of control | [10] 104 % of control | [12] 96 % of control

CC1(C)OC1(C)C
inactive: [4] 97 % of control | [5] 104 % of control | endpoint: mean survival time, dose: 400.0 mg/kg/injection, schedule: Q04DX003 (ip), vehicle: saline 97 % of control

N#CCN(CC#N)CCN(CC#N)CC#N
inactive: [7] 92 % of control | [8] 97 % of control | [9] 93 % of control | [10] 97 % of control | [11] 104 % of control | [12] 97 % of control

Clc1cccc(Cl)c1C(Cl)Cl
inactive: [7] 98 % of control | [9] 98 % of control | [11] 98 % of control

C1=NC(c2ccccn2)=NNC(c2ccccn2)=C1c1ccccc1
inactive: endpoint: mean survival time, dose: 12.5 mg/kg/injection, schedule: Q01DX009 (ip), vehicle: Klucel (hydroxypropylcellulose) (HPC) 97 % of control | endpoint: mean survival time, dose: 25.0 mg/kg/injection, schedule: Q01DX009 (ip), vehicle: Klucel (hydroxypropylcellulose) (HPC) 100 % of control | [15] 95 % of control | [16] 100 % of control | endpoint: mean survival time, dose: 200.0 mg/kg/injection, schedule: Q01DX009 (ip), vehicle: Klucel (hydroxypropylcellulose) (HPC) 97 % of control

CNC1=C(C)C(=O)C2=C(C1=O)C(COC(N)=O)C1(O)C3C(CN21)N3C (stereo unspecified)
inactive: endpoint: mean survival time, dose: 1.5 mg/kg/injection, schedule: Q01DX001 (ip), vehicle: water 98 % of control | endpoint: mean survival time, dose: 3.0 mg/kg/injection, schedule: Q01DX001 (ip), vehicle: water 100 % of control | endpoint: mean survival time, dose: 6.0 mg/kg/injection, schedule: Q01DX001 (ip), vehicle: water 100 % of control | endpoint: mean survival time, dose: 12.0 mg/kg/injection, schedule: Q01DX001 (ip), vehicle: water 100 % of control | endpoint: mean survival time, dose: 24.0 mg/kg/injection, schedule: Q01DX001 (ip), vehicle: water 98 % of control | endpoint: mean survival time, dose: 48.0 mg/kg/injection, schedule: Q01DX001 (ip), vehicle: water 115 % of control | endpoint: mean survival time, dose: 96.0 mg/kg/injection, schedule: Q01DX001 (ip), vehicle: water 108 % of control

CC(C)CC(C)COC(=O)c1c(Cl)c(Cl)c(Cl)c(Cl)c1C(=O)O (stereo unspecified)
inactive: [21] 90 % of control | [22] 90 % of control

CC1=CCC(=O)O1
inactive: [19] 102 % of control | [20] 98 % of control | endpoint: mean survival time, dose: 400.0 mg/kg/injection, schedule: Q04DX002 (ip), vehicle: saline with Tween-80 102 % of control
